# Source: PMC7251097, “Aspartate/asparagine-β-hydroxylase: a high-throughput mass spectrometric assay for discovery of small molecule inhibitors” (Scientific Reports, 2020)
# Structures can show the parent of a compound that is named as a salt. Where two headings read alike, the source gives them in different places.
# Molecular target: T1, His6-AspH315–758 (human aspartate/asparagine-β-hydroxylase, AspH) (Homo sapiens, UniProt Q12797)
# T1 construct: N-Terminally His6-tagged human AspH315–758 (His6-AspH315–758) was produced in E. coli BL21 (DE3) cells; made in house; host or cells: E. coli BL21 (DE3), pET-28a(+) vector
# T1 sequence (Q12797 315-758): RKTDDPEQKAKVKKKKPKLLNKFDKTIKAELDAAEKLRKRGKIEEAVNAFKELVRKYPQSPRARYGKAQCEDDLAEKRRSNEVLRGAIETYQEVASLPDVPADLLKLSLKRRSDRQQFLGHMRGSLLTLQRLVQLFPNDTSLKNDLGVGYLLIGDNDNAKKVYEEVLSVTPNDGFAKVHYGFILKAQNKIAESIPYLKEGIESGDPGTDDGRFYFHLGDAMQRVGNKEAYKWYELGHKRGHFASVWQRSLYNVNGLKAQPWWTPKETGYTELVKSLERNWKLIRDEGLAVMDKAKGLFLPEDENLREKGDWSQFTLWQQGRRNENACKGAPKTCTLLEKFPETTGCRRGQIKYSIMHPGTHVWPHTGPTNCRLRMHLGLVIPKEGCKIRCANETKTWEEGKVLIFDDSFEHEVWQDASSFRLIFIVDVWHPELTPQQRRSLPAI
# Experiment: SPE-MS AspH inhibition assay (LOPAC screen at fixed 20 μM and IC50 dose-response), hydroxylation of cyclic peptide hFX-CP101–119
# Assay type: biochemical
# Conditions: for Plate 1 (% inhibition): plate 1, normalised to DMSO and 2,4-PDCA controls
# [1] = LOPAC compound at 20uM, plate 2, normalised to DMSO and 2,4-PDCA controls
# [2] = LOPAC compound at 20uM, plate 2, conversion of substrate peptide
# [3] = LOPAC Plate 4, compound at 20 uM
# [4] = LOPAC Plate 4, compound at 20 uM, substrate conversion
# [5] = LOPAC compound at fixed 20 uM, substrate conversion, plate 1
structure (smiles),measurement,setting,value
CC(C)COC(=O)OCN1C(=O)CN(CCN2CC(=O)N(COC(=O)OCC(C)C)C(=O)C2)CC1=O [Sobuzoxane],% conversion,,68.13%
CC1=NN=C(c2ccc(N)cc2)c2cc3c(cc2C1)OCO3.Cl [GYKI 52466 hydrochloride],Plate 2 (% conversion),,38.91%
same,Plate 2 (% inhibition),[1],-8.84%
CNCCc1cnc(CCC(c2ccccc2)c2ccccc2)[nH]1.O=C(O)C(=O)O.O=C(O)C(=O)O [N-Methylhistaprodifen dioxalate salt],Plate 2 (% conversion),[2],8.76%
same,Plate 2 (% inhibition),[1],81.23%
"c1ccc(-c2ccccn2)nc1 [2,2-Bipyridyl]",Plate 2 (% conversion),,27.94%
same,Plate 2 (% inhibition),20 µM,23.93%
O=c1[nH]c2ccccc2c2ccccc12 [6(5H)-Phenanthridinone],% inhibition,[3],-0.0747%
same,% conversion,[4],36.50%
Cc1cc(C(C)(C)C)cc(C)c1CC1=NCCN1 [Xylometazoline hydrochloride],% conversion,,31.88%
CCCCCCCC/C=C\CCCCCCCC(=O)NCCc1ccc(O)c(O)c1 [N-Oleoyldopamine],% inhibition,[3],94.15%
same,% conversion,[4],4.34%
Cc1ccc(O)c([C@H](CCN(C(C)C)C(C)C)c2ccccc2)c1 [Tolterodine],Plate 5 (% conversion),,15.18%
same,Plate 5 (% inhibition),,62.09%
"Br.Oc1cc2c(c(Cl)c1O)CCNCC2c1ccccc1 (racemic) [(±)-6-Chloro-PB hydrobromide, reference compound]",Inhibition at 20 µM [%],"AspH activity, fixed compound concentration 20 μM, initial LOPAC screen, 0.5%v/v DMSO",98.8%
same,% conversion,[4],2.77%
COc1ccc(/C=C/C(=O)Nc2ccccc2C(=O)O)cc1OC [Tranilast],% conversion,[4],35.26%
"CC(N)Cc1cccc(C(F)(F)F)c1.Cl (single isomer, unassigned; (+)) [(+)-Norfenfluramine hydrochloride]",% conversion,,26.61%
O=C1NCCc2[nH]c(-c3ccncc3)cc21 [PHA 767491],Plate 5 (% inhibition),"plate 5 (Pfitzer), test compounds at fixed 20 μM",26.12%
same,Plate 5 (% conversion),"plate 5 (Pfitzer), test compounds at fixed 20 μM, mean conversion DMSO 32.88",27.42%
CN(C)C(=O)Oc1cccc([N+](C)(C)C)c1 [Neostigmine bromide],Plate 3 (% conversion),,40.63%
N=C(N)NC(=N)Nc1ccccc1 [1-Phenylbiguanide],% inhibition,[3],12.13%
same,% conversion,[4],32.33%
Cl.N[C@@H](CCC(=O)O)C(=O)O [L-Glutamic acid hydrochloride],Plate 2 (% conversion),[2],29.01%
same,Plate 2 (% inhibition),[1],20.74%
CCCCC#Cc1nc(NC)c2ncn([C@@H]3O[C@H](CO)[C@@H](O)[C@H]3O)c2n1 [HEMADO],Plate 1 (% inhibition),LOPAC compound at fixed 20 uM,20.82%
same,Plate 1 (% conversion),[5],28.88%
Cl.Nc1ccn([C@@H]2O[C@H](CO)[C@@H](O)[C@@H]2O)c(=O)n1,Plate 1 (% inhibition),LOPAC compound at fixed 20 uM,-2.68%
same,Plate 1 (% conversion),[5],36.77%
CCCN(CCC)CCc1cccc2c1CC(=O)N2 [Ropinirole hydrochloride],% conversion,,31.94%
CC(C)C(=O)Nc1ccc([N+](=O)[O-])c(C(F)(F)F)c1 [Flutamide],Plate 2 (% conversion),[2],40.61%
same,inhibition at 20 µM,"LOPAC compound at 20uM, plate 2, normalised to DMSO and 2,4-PDCA controls, read-out: Plate 2 (% inhibition)",-13.9%
C[C@H]1C[C@H]2[C@@H]3CCC4=CC(=O)C=C[C@]4(C)[C@@]3(F)[C@@H](O)C[C@]2(C)[C@@]1(O)C(=O)CO [Betamethasone],Plate 1 (% inhibition),LOPAC compound at fixed 20 uM,-5.12%
same,Plate 1 (% conversion),[5],37.59%
"O=C(N/N=C/c1c(O)ccc2ccccc12)c1ccncc1 [AS-8351, reference compound]",IC50,"50 nM His6-AspH315–758, 1.0 μM hFX-CP101–119, 3 μM 2OG, 2 μM Fe(II), 50 mM HEPES pH 7.5, 20 °C, mean ± SD, n = 2 (2,4-PDCA n = 10), read-out: IC50",3.07 ± 0.43 µM
Cl.NCCc1ccc(O)cc1 [4-Hydroxyphenethylamine hydrochloride],% inhibition,[3],-7.46%
same,% conversion,[4],39.01%
Cl.Cl.O=c1ccc2[nH]cc(C3=CCNCC3)c2[nH]1 [CP-93129 dihydrochloride hydrate],% conversion,,37.25%
same,% inhibition,[3],-2.28%
Cl.c1ccc2c(c1)CCC[C@H]2Nc1nc2ccccc2[nH]1 [NS8593 hydrochloride],Plate 2 (% conversion),[2],39.37%
same,Plate 2 (% inhibition),[1],-10.19%
CN(C)CCC=C1c2ccccc2CCc2ccccc21 [Amitriptyline hydrochloride],Plate 1 (% conversion),,38.67%
same,Plate 1 (% inhibition),LOPAC compound at fixed 20 uM,-8.33%
CC(C)N(CCC(=O)c1ccc2ccccc2c1)Cc1ccccc1.Cl [ZM 39923 hydrochloride],Plate 3 (% conversion),"LOPAC compound at 20uM, plate 3, conversion of substrate peptide",15.79%
CN(C)CC/C=C1/c2ccccc2Sc2ccc(Cl)cc21 [Chlorprothixene hydrochloride],Plate 1 (% inhibition),LOPAC compound at fixed 20 uM,-27.95%
same,Plate 1 (% conversion),[5],45.26%
COC(=O)C(N)Cc1ccc(Cl)cc1.Cl (racemic),Plate 1 (% inhibition),LOPAC compound at fixed 20 uM,1.48%
same,Plate 1 (% conversion),[5],35.38%
